From publication PMC6299220 (mBio, 2018)
pEC50: −log10 of the molar value. In brackets after ≈: the same amount, converted by molar mass. Read-outs that look alike come from different tables or passages of the source.

Tests used:
M. bovis BCG = assay: microbe, parasite or virus in culture; type: cell-based; conditions: Mycobacterium tuberculosis variant bovis BCG
M. tuberculosis 210 = assay: microbe, parasite or virus in culture; type: cell-based; conditions: Mycobacterium tuberculosis
M. tuberculosis TDR692 = assay: microbe, parasite or virus in culture; type: cell-based; conditions: Mycobacterium tuberculosis
M. smegmatis = assay: MIC, MABA; type: cell-based; conditions: Mycolicibacterium smegmatis; M. smegmatis wild-type
M. abscessus = assay: MIC, MABA; type: cell-based; conditions: Mycobacteroides abscessus; M. abscessus ATCC wild type
M. avium = assay: MIC, MABA; type: cell-based; conditions: Mycobacterium avium; M. avium ATCC wild type
M. fortuitum = assay: MIC, MABA; type: cell-based; conditions: Mycolicibacterium fortuitum; M. fortuitum ATCC wild type
M. marinum = assay: MIC, MABA; type: cell-based; conditions: Mycobacterium marinum; M. marinum ATCC wild type
[1] = system: M. tuberculosis 100-day-old bacilli (persisters); type: cell-based, Mycobacterium tuberculosis
[2] = system: M. tuberculosis H37Rv gene expression; type: cell-based, Mycobacterium tuberculosis
M. tuberculosis = conditions: cited from earlier work
M. tuberculosis H37Rv = assay: microbe, parasite or virus in culture; type: cell-based, Mycobacterium tuberculosis
[3] = Mouse liver microsomal (MLM) stability; conditions: for half-life: mouse, liver microsomes
KasA = KasA (Mycobacterium tuberculosis, UniProt P9WQD9); assay: Microscale thermophoresis (MST) binding assay; conditions: 49.5 nM labeled KasA
[4] = system: mycolic acid biosynthesis in M. tuberculosis H37Rv; type: cell-based, Mycobacterium tuberculosis
[5] = mouse, microsomes
physchem = conditions: pH 7.4, aqueous buffer, kinetic from dmso stock

Chain of KasA (P9WQD9 whole entry): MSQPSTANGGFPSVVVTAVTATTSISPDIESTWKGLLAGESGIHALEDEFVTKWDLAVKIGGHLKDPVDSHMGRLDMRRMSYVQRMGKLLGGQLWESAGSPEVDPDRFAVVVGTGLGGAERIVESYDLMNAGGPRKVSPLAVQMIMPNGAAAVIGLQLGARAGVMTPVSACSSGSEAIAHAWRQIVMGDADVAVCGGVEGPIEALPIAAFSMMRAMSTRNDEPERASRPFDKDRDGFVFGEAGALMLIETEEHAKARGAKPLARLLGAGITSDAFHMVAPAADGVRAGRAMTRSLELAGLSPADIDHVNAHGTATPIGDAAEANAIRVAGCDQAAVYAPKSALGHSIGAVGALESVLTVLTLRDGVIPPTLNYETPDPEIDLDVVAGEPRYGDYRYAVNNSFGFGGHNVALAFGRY

NNC(=O)c1ccncc1 [INH, isoniazid]
MIC (M. bovis BCG): 0.4 µM (≈ 0.0549 µg/mL) | MIC (M. tuberculosis 210): 0.4 µM (≈ 0.0549 µg/mL) | MIC (M. tuberculosis TDR692): 0.2 µM (≈ 0.0274 µg/mL) | MIC (M. smegmatis): > 12 µM | MIC (M. abscessus): > 12 µM | MIC (M. avium): > 12 µM | MIC (M. fortuitum): > 12 µM | MIC (M. marinum): > 12 µM | killing of persister cultures [1]: minimal killing | Fold change, Rv0885 [2]: 2.044 fold | Fold change, Rv2706c [2]: 2.3 fold | Fold change, Rv3269 [2]: -2.076 fold | Fold change, Rv3352c [2]: 2.131 fold | Fold change, ctpD [2]: 2.334 fold | Fold change, cysA3 [2]: -2.027 fold | Fold change, fadD5 [2]: -2.2153 fold | Fold change, fadD11 [2]: -2.252 fold | Fold change, lprQ [2]: 2.051 fold | Fold change, sapM [2]: 2.01 fold | expression of the kasA, kasB, and acpM genes and the iniBAC operon [2]: strongly induced expression

C=C/C(C)=C/[C@@]1(C)SC(=O)C(C)=C1O [thiolactomycin]
whole-cell activity in M. tuberculosis (M. tuberculosis): 142 µM

1-Methyl-N-pentyl-1H-indazol-6-amine [5f]
MIC (M. tuberculosis H37Rv): >100 µM | Kinetic solubility in pH 7.4 PBS: >500 µM | MLM stability clint ([3]; Table 3): 56.7 μl/mi/mg protein | MLM stability t1/2 ([3]; with NADPH): 12.2 min | MLM stability t1/2 without NADPH ([3]; without NADPH): > 3,060 min

CCCCS(=O)(=O)Nc1ccc2cn[nH]c2c1 [5a-2, N-(1H-Indazol-6-yl)butane-1-sulfonamide]
MIC (M. tuberculosis H37Rv): >100 µM | MIC (M. tuberculosis H37Rv; Mycobacterium tuberculosis, H37RV): > 100 µM | pEC50 (KasA): 5.76 | inhibition of mycolic acid biosynthesis [4]: did not show any inhibition | MLM stability clint [5]: 68.7 μl/mi/mg protein | solubility kinetic (physchem): > 600 µM | half-life ([3]; MLM stability t1/2, with NADPH): 12.2 min | half-life ([3]; MLM stability t1/2 without NADPH, without NADPH): > 3060 min

CC12C[C@@]34C=CC(=O)[C@@](C)(CCC(=O)Nc5c(O)ccc(C(=O)O)c5O)C3[C@H](CC1C4)O2 (some centres unmarked) [platensimycin]
whole-cell activity in M. tuberculosis (M. tuberculosis): 27 µM
